The numbers were not newly measured in US20070166344A1, “Non-leaching surface-active film compositions for microbial adhesion prevention” (priority 2006, published 2007), which cites them from elsewhere.

For this series the following is noted: organism not given.

As to Benzalkonium chloride, the MIC level result is listed as “about 7.5 ppm”.
